According to patent publication US10100039B2, “Allisartan isoproxil polymorph, its preparation method and pharmaceutical” (SHENZHEN SALUBRIS PHARMACEUTICALS CO., LTD, priority 2014, dated 2018):

What was measured:
Assay type in all cases: physicochemical
[1] = Repose angle by fixed funnel method (flowability)
Excerpt: Repeated the method of patent CN200710094131.0 to obtain fine loose allisartan isoproxil powder (referred to as literature crystal), measured the response angle by fixed funnel method.

[2] = Stability study of influence factors (high temperature, high humidity, light); details: for Stability under influence factors (conclusion in words): photostability, high humidity and high temperature study
Protocol: Stability study on the mentioned polymorph in Example 1 was performed in high temperature, high humidity and light conditions to study the influence factors.

[3] = Observation of electrostatic phenomenon of the crystal; details: compared with the crystal disclosed
Protocol: Added 33 ml of isopropanol and 66 ml of n-heptane in the remainder (allisartan isoproxil crude), heated to 76° C. and stirred for 2 h, then cooled to 60° C. and stirred for 1 h. Cooled the system slowly to 0° C., continued to stir for 3 h. Filtered, and washed the filter cake with n-heptane.

[4] = Bulk density by cylinder knocking method
[5] = high humidity test 25° C., RH 92.5%, day 0
[6] = high humidity test 25° C., RH 92.5%, day 5
[7] = high humidity test 25° C., RH 92.5%, day 10
[8] = high temperature test 60° C., day 0
[9] = high temperature test 60° C., day 5
[10] = high temperature test 60° C., day 10
[11] = photostability test 4500lx ± 500lx, day 0
[12] = photostability test 4500lx ± 500lx, day 5
[13] = photostability test 4500lx ± 500lx, day 10

CCCCc1nc(Cl)c(C(=O)OCOC(=O)OC(C)C)n1Cc1ccc(-c2ccccc2-c2nnn[nH]2)cc1 [Example 1, 2-butyl-4-chloro-1-[2′-(1H-tetrazol-5-yl)-1, 1′-biphenyl-methyl]-imidazole-5-carboxylic acid, 1-[(isopropoxy)-carbonyloxy]methyl ester]
Repose angle [1]: 34-36 °
Sum of impurities [2, 5]: 0.39%
Weight gained [2, 5]: 0%
Sum of impurities [2, 6]: 0.37%
Weight gained [2, 6]: 0%
Sum of impurities [2, 7]: 0.38%
Weight gained [2, 7]: 0%
Sum of impurities [2, 8]: 0.39%
Weight gained [2, 8]: 0%
Sum of impurities [2, 9]: 0.39%
Weight gained [2, 9]: 0%
Sum of impurities [2, 10]: 0.39%
Weight gained [2, 10]: 0%
Sum of impurities [2, 11]: 0.39%
Weight gained [2, 11]: 0%
Sum of impurities [2, 12]: 0.37%
Weight gained [2, 12]: 0%
Sum of impurities [2, 13]: 0.38%
Weight gained [2, 13]: 0%
Stability under influence factors (conclusion in words) [2]: remained stable
Electrostatic phenomenon [3]: does not have obvious electrostatic phenomenon
Bulk density [4]: 0.75 g/mL

CCCCc1nc(Cl)c(C(=O)OCOC(=O)OC(C)C)n1Cc1ccc(-c2ccccc2-c2nnn[nH]2)cc1 [Example 2, 2-butyl-4-chloro-1-[2′-(1H-tetrazol-5-yl)-1, 1′-biphenyl-methyl]-imidazole-5-carboxylic acid, 1-[(isopropoxy)-carbonyloxy]methyl ester]
Repose angle [1]: 35-37 °
Stability under influence factors (conclusion in words) [2]: same result with that of Example 1
Bulk density [4]: 0.73 g/mL

CCCCc1nc(Cl)c(C(=O)OCOC(=O)OC(C)C)n1Cc1ccc(-c2ccccc2-c2nnn[nH]2)cc1 [Example 3, 2-butyl-4-chloro-1-[2′-(1H-tetrazol-5-yl)-1, 1′-biphenyl-methyl]-imidazole-5-carboxylic acid, 1-[(isopropoxy)-carbonyloxy]methyl ester]
Repose angle [1]: 33-35 °
Stability under influence factors (conclusion in words) [2]: same result with that of Example 1
Bulk density [4]: 0.77 g/mL

CCCCc1nc(Cl)c(C(=O)OCOC(=O)OC(C)C)n1Cc1ccc(-c2ccccc2-c2nnn[nH]2)cc1 [Example 4, 2-butyl-4-chloro-1-[2′-(1H-tetrazol-5-yl)-1, 1′-biphenyl-methyl]-imidazole-5-carboxylic acid, 1-[(isopropoxy)-carbonyloxy]methyl ester]
Repose angle [1]: 35-38 °
Stability under influence factors (conclusion in words) [2]: same result with that of Example 1
Bulk density [4]: 0.77 g/mL

CCCCc1nc(Cl)c(C(=O)OCOC(=O)OC(C)C)n1Cc1ccc(-c2ccccc2-c2nnn[nH]2)cc1 [Literature crystal, 2-butyl-4-chloro-1-[2′-(1H-tetrazol-5-yl)-1, 1′-biphenyl-methyl]-imidazole-5-carboxylic acid, 1-[(isopropoxy)-carbonyloxy]methyl ester, reference compound]
Repose angle [1]: 48-53 °
Bulk density [4]: 0.51 g/mL
